Results published in ChEMBL document CHEMBL5149970 (J Med Chem, 2021).

Assay: Antiproliferative activity against human EU-1 cells assessed as inhibition of cell growth incubated for 48 hrs by WST assay
Assay type: functional, cell-based
Settings: EU-1, 48 h

| Structure (SMILES) | IC50 |
| --- | --- |
| COC(=O)c1ccc(C2Nc3ccc(S(=O)(=O)Nc4ccc(C)c(C)c4)cc3C3NCCC23)cc1 (stereo not drawn) | 3500 nM |
| Cc1cc(NS(=O)(=O)c2ccc3c(c2)C2OCCC2C(c2ccc(C(=O)C(C)C)cc2)N3)ccc1F (stereo not drawn) | 2900 nM |
| Cc1ccc(NS(=O)(=O)c2ccc3c(c2)C2OCCC2C(c2ccc(C(=O)O)cc2)N3)cc1C (stereo not drawn) | > 50000 nM |
| Cc1ccc(NS(=O)(=O)c2ccc3c(c2)[C@H]2OCC[C@H]2[C@@H](c2ccc(C(=O)C(C)C)cc2)N3)cc1C | 300 nM |
| Cc1ccc(NS(=O)(=O)c2ccc3c(c2)C2NCCC2C(c2ccc(C(=O)O)cc2)N3)cc1C (stereo not drawn) | > 50000 nM |
| Cc1ccc(NS(=O)(=O)c2ccc3c(c2)C2OCCC2C(c2ccc(Br)cc2)N3)cc1C (stereo not drawn) | 3600 nM |
| CC(=O)c1cccc(C2Nc3ccc(S(=O)(=O)Nc4ccc(C)c(C)c4)cc3C3OCCC23)c1 (stereo not drawn) | 2000 nM |
| Cc1cccc(NS(=O)(=O)c2ccc3c(c2)C2OCCC2C(c2ccc(C(=O)C(C)C)cc2)N3)c1 (stereo not drawn) | 1400 nM |
